System: MED14 phosphorylation in COLO205 cells
Assay: CDK-phospho-motif immunoprecipitation and MED14 immunoblot, COLO205
Type: cell-based, human
Settings: COLO205, 350 nM, 6 h
Source text: In the absence of phospho-specific antibodies targeting these sites, we employed immunoprecipitation using CDK-phospho-motif antibodies followed by immunoblotting with a MED14 antibody to validate the observed reduction in MED14 phosphorylation. […] In contrast, phosphorylation of MED13 and MED26 was reduced in only 2 of 5 and 5 of 10 CDK-phospho-motif peptides, respectively (Figure E and Supporting Figure S2C). This heterogeneous phosphorylation pattern complicates validation using motif-based immunoprecipitation, as reductions at specific phospho-sites may be obscured by unchanged CDK-motif phosphorylation at other sites. […]
Cell monolayers were washed with PBS twice and lysed using a modified RIPA buffer, mRIPA (50 mM TRIS-HCl pH 7.4, 1% NP-40 substitute, 0.5% NaDOC, 150 mM NaCl, 1 mM EDTA, 0.02% SDS and 1:100 dilution of proteinase and phosphatase inhibitor cocktail, (#5872, Cell Signaling Technology) with overnight freezing at -80 °C and sonication of the cell pellet. Lysates were clarified by centrifugation and supernatants collected and protein concentration determined by a bicinchoninic acid (BCA) assay. […]
= biological repeats; * = phosphorylated residue). (B) STAT1SER727 phosphorylation in COLO205 or SW620 cell lysates detected using two different phospho-STAT1SER727-specific antibodies following treatment with 350 nM CCT251545 for 6 hours. […]

Cn1cc(-c2ccc(-c3cncc(Cl)c3N3CCC4(CCNC4=O)CC3)cc2)cn1 [CCT251545]
MED14 phosphorylation (CDK-phospho-motif immunoprecipitation, MED14 immunoblot): decrease was evident

From paper PMC12281475, “Mediator Kinase Inhibitor Selectivity and Activity in Colorectal Cancer” (ACS Chemical Biology, 2025)
